{"source": "patent US20260055080A1", "about": "“NOVEL SUBSTITUTED QUINOLINE AND TETRAHYDRONAPHTHALENE CARBOXYLIC ACID DERIVATIVES AND THERAPEUTIC USES THEREOF” (SANOFI, priority 2022, published 2026)", "target": "T1, ERα (Homo sapiens, UniProt P03372)", "T1 construct": "measured to determine the levels of ERα and DNA respectively; host or cells: MCF7", "T1 sequence (P03372 1-595)": "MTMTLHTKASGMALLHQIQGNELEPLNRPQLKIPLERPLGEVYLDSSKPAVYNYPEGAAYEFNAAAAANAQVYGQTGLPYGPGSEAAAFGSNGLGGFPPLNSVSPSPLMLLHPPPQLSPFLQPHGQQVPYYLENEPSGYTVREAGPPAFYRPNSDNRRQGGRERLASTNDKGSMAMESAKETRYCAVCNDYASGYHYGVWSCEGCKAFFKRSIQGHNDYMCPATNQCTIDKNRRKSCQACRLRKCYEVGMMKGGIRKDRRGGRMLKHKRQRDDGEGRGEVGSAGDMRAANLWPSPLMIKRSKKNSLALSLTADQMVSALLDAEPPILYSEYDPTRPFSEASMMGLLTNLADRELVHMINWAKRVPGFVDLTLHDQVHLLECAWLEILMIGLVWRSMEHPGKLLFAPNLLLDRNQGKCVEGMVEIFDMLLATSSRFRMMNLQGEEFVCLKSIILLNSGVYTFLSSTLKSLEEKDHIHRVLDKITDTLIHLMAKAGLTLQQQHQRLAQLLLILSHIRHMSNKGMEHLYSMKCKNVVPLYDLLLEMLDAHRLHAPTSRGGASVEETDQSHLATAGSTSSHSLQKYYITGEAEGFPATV", "test": "Estrogen receptor degradation activity: breast cancer cell ERα in cell western assay", "type": "cell-based", "details": "MCF7 cells; for % Degradation At 0.3 μM: 4 hours, relative to fulvestrant 0.1 μM positive control; for DC50: 4 hours post compound addition, concentration which degrades 50% of the estrogen receptor, read-out: Degradation IC50", "protocol": "Test: Estrogen Receptor Degradation Activity\nSaid test involves measuring the in vitro degradation activity of the compounds of the Table 1.\nThe measurements of the degradation activities were made using a breast cancer cell ERα in cell western assay as described hereunder.\nMCF7 cells (ATCC) were seeded in 384 wells microplate (collagen coated) at a concentration of 10000 cells/30 μL per well in red phenol free MEM alpha medium (invitrogen) containing 5% charcoal dextran striped FBS. The following day, 9 points serial 1:5 dilution of each compound was added to the cells in 2.5 μL at final concentrations ranging from 0.3-0.0000018 μM (in Table 2), or 0.1 μM for fulvestrant (using as positive control). At 4 hours post compound addition the cells were fixed by adding 25 μL of formalin (final concentration 5% formalin containing 0.1% triton) for 10 minutes at room temperature and then washed twice with PBS. Then, 50 μL of LI-COR blocking buffer containing 0.1% Triton was added to plate for 30 minutes at room temperature. LI-COR blocking buffer was removed and cells were incubated overnight at cold room with 50 μL anti-ER rabbit monoclonal antibody (Thermo scientific MA1-39540) diluted at 1:1000 in LI-COR blocking buffer containing 0.1% tween-20. Wells which were treated with blocking buffer but no antibody were used as background control. Wells were washed twice with PBS (0.1% tween-20) and incubated at 37° C. for 60 minutes in LI-COR (0.1% tween-20) containing goat anti-rabbit antibody Alexa 488 (1:1000) and Syto-64 a DNA dye (2 μM final concentration). Cells were then washed 3 times in PBS and scanned in ACUMEN explorer (TTP-Labtech). Integrated intensities in the green fluorescence and red fluorescence were measured to determine the levels of ERα and DNA respectively.\nThe degradation activity with respect to estrogen receptors in this test is given by the concentration which degrades 50% of the estrogen receptor (or IC50) in nM.\nThe % of ERα levels decrease were determined as follows: % inhibition=100*(1-(sample-fulvestrant: DMSO-fulvestrant)).", "data": [{"smiles": "O=C(O)c1ccc2c(C(=O)c3ccc(OC4CN(CCCF)C4)cc3)c(-c3ccc(C(F)(F)F)cc3F)cnc2c1", "note": "[Compound 1]", "values": [{"measurement": "% Degradation At 0.3 μM", "value": 51, "unit": "%"}, {"measurement": "DC50", "value": 136, "unit": "nM"}]}, {"smiles": "O=C(O)c1ccc2c(C(=O)c3ccc(OCCN4CC(CF)C4)cc3)c(-c3ccc(C(F)(F)F)cc3F)cnc2c1", "note": "[Compound 2, 3-(2-fluoro-4-(trifluoromethyl)phenyl)-4-(4-(2-(3-(fluoromethyl)azetidin-1-yl)ethoxy)benzoyl)quinoline-7-carboxylic acid]", "values": [{"measurement": "% Degradation At 0.3 μM", "value": 62, "unit": "%"}, {"measurement": "DC50", "value": 196, "unit": "nM"}]}, {"smiles": "CCNCCc1ccc(CN(CC)c2cc(OC)ccc2[C@@H]2CCc3cc(C(=O)O)ccc3C2)cc1", "note": "[Compound 3, (R)-6-(2-(ethyl(4-(2-(ethylamino)ethyl)benzyl)amino)-4-methoxyphenyl)-5,6,7,8-tetrahydronaphthalene-2-carboxylic acid]", "values": [{"measurement": "% Degradation At 0.3 μM", "value": 49, "unit": "%"}, {"measurement": "DC50", "value": 252, "unit": "nM"}]}]}
